Columns and labels:
[1] = Drug transfer efficiency of drug coated balloons (Table 1); type: in vivo; details: balloon 3 × 12 mm, coronary, 20% overstretch, stent present, inflation 30 s, time point 30 minutes
Protocol: For purpose of explanation, and not limitation, of the disclosed subject matter, reference is now made to a comparative study between paclitaxel and zotarolimus.
(§1) With a stent on a coronary balloon, the percent of dose in the vessel from a pure zotarolimus coated balloon was measured at about 30 minutes, 1 day, and 7 days.

[2] = in vivo
[3] = Percent of dose in the vessel from pure zotarolimus coated coronary balloon with stent (FIG. 2); type: in vivo
Protocol: FIG. 2 is a graph illustrating percent transfer efficiency as a function of time for pure zotarolimus coatings on a zotarolimus coated balloon.
as §1

whole blood = experiment: Acute thrombogenicity of stents in whole blood via the Chandler Loop (FIG. 5); details: drug coated stents in whole blood; compared to zotarolimus
[4] = Percent tissue uptake from paclitaxel coated balloon (FIG. 3); type: in vivo; details: porcine coronary arteries, day 1 (24 hours)

| Structure (SMILES) | Percent transfer efficiency ([1]; dose 104 μg/cm^2) | Percent transfer efficiency ([1]; dose 576 μg/cm^2) | histology evidence of coating fragments adhering to a vessel wall [2] | percent drug in tissue over time ([3]; coronary balloon with stent, measured at about 30 minutes, 1 day and 7 days) | tissue uptake ([3]; pure zotarolimus coated coronary balloon with stent, 652 μg dose, day 1 (24 hours)) | acute thrombogenicity as measured by lactate dehydrogenase (LDH) (whole blood) | tissue uptake [4] |
| --- | --- | --- | --- | --- | --- | --- | --- |
| CO[C@H]1C[C@@H]2CC[C@@H](C)[C@@](O)(O2)C(=O)C(=O)N2CCCC[C@H]2C(=O)O[C@H]([C@H](C)C[C@@H]2CC[C@H](n3cnnn3)[C@H](OC)C2)CC(=O)[C@H](C)/C=C(\C)[C@@H](O)[C@@H](OC)C(=O)[C@H](C)C[C@H](C)/C=C/C=C/C=C/1C [Pure Zotarolimus, zotarolimus] | 4.7 | 5.2 | no apparent histology evidence | rapid decrease in the percent drug in tissue | about 0.56% | – | – |
| CC(=O)O[C@H]1C(=O)[C@@]2(C)[C@H]([C@H](OC(=O)c3ccccc3)[C@]3(O)C[C@H](OC(=O)[C@H](O)[C@@H](NC(=O)c4ccccc4)c4ccccc4)C(C)=C1C3(C)C)[C@]1(OC(C)=O)CO[C@@H]1C[C@@H]2O [paclitaxel] | – | – | – | – | – | more thrombogenic | about 2% |
